Laboratory results taken from ChEMBL document CHEMBL3351448, “Discovery of (7-aryl-1,5-naphthyridin-2-yl)ureas as dual inhibitors of ERK2 and Aurora B kinases with antiproliferative activity against cancer cells” (Bioorg Med Chem Lett, 2014).

Tests used:
[1] = molecular target: Vascular endothelial growth factor receptor 2 (Homo sapiens, UniProt P35968); assay: Inhibition of KDR (unknown origin)
[2] = molecular target: Tyrosine-protein kinase Yes (Homo sapiens, UniProt P07947); assay: Inhibition of YES (unknown origin)
Tyrosine-protein kinase Yes, sequence (P07947 whole entry): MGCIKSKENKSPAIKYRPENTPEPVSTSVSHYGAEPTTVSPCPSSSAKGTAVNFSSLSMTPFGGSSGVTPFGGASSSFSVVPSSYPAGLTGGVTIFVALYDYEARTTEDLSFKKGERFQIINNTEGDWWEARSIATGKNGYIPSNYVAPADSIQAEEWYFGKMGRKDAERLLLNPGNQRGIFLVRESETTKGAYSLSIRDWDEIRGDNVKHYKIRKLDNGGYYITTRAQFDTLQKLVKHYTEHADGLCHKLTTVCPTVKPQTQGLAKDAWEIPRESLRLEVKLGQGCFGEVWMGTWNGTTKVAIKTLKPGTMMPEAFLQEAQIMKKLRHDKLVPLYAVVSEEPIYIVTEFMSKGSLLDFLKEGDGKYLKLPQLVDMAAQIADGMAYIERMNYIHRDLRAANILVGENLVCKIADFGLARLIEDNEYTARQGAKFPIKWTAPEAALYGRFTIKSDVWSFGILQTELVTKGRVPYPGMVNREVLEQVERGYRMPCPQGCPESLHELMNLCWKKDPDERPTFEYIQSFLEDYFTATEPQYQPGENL

[3] = Antiproliferative activity against human U87MG cells; format: functional, cell-based, U-87MG ATCC; conditions: U-87 MG
[4] = molecular target: Serine/threonine-protein kinase pim-1 (Homo sapiens, UniProt P11309); assay: Inhibition of PIM1 (unknown origin)
[5] = molecular target: Homeodomain-interacting protein kinase 1 (Homo sapiens, UniProt Q86Z02); assay: Inhibition of HIPK1 (unknown origin)
Homeodomain-interacting protein kinase 1, sequence (Q86Z02 whole entry): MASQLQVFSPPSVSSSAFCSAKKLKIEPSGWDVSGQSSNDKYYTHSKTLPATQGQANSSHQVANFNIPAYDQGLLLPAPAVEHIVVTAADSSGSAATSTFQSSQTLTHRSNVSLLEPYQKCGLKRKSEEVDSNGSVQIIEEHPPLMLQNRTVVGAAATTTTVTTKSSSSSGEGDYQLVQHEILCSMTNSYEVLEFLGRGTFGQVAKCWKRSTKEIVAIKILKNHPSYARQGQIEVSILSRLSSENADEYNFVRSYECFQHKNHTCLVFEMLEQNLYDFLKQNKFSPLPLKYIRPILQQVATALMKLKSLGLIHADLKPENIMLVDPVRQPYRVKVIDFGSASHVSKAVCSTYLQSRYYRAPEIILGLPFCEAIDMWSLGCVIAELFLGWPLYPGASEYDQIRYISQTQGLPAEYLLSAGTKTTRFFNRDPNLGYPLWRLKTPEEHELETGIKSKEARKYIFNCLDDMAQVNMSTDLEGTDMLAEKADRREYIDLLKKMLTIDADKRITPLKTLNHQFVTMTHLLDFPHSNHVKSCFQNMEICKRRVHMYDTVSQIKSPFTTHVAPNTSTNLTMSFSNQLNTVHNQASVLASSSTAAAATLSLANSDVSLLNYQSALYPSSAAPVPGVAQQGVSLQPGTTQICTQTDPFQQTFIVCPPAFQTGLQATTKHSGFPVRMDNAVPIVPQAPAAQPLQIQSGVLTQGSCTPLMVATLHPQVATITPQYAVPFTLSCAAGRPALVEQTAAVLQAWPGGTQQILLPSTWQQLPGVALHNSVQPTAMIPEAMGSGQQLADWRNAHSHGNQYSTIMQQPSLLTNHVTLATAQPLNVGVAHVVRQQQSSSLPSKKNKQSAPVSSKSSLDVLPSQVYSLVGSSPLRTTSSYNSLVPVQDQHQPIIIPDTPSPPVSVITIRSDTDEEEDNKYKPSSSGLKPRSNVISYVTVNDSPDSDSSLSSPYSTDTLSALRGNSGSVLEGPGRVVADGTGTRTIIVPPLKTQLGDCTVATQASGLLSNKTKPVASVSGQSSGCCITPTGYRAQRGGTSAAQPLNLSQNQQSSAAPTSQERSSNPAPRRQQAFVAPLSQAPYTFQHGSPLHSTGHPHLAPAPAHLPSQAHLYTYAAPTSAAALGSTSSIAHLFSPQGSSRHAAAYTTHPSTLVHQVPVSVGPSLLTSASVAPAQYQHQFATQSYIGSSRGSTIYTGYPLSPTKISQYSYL

MDA-MB-468 = assay: Antiproliferative activity against human MDA-MB-468 cells; format: functional, cell-based
[6] = molecular target: High affinity nerve growth factor receptor (Homo sapiens, UniProt P04629); assay: Inhibition of TrkA (unknown origin)
High affinity nerve growth factor receptor, sequence (P04629 whole entry): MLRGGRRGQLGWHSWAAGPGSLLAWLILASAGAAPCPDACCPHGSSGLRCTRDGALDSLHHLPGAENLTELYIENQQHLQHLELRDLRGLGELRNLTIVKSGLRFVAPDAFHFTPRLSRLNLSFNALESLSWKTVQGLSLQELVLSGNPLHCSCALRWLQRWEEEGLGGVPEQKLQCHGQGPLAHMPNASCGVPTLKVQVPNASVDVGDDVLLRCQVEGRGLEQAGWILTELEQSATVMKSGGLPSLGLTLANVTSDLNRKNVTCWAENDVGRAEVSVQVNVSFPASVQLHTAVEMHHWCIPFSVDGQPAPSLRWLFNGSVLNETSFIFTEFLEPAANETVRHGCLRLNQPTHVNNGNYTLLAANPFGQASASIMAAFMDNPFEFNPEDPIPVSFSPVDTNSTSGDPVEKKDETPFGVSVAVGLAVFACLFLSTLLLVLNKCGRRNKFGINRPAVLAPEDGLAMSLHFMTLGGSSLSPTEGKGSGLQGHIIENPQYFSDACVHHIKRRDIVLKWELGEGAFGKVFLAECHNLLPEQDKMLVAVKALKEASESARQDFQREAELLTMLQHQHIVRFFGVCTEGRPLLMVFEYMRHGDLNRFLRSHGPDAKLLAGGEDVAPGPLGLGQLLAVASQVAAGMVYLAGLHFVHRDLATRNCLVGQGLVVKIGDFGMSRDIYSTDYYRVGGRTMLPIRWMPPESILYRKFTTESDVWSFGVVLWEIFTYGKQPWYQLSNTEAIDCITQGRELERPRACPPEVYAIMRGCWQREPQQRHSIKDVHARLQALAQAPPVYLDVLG

A549 = assay: Antiproliferative activity against human A549 cells; format: functional, cell-based
[7] = molecular target: Tyrosine-protein kinase ABL1 (Homo sapiens, UniProt P00519); assay: Inhibition of c-Abl (unknown origin)
Tyrosine-protein kinase ABL1, sequence (P00519 whole entry): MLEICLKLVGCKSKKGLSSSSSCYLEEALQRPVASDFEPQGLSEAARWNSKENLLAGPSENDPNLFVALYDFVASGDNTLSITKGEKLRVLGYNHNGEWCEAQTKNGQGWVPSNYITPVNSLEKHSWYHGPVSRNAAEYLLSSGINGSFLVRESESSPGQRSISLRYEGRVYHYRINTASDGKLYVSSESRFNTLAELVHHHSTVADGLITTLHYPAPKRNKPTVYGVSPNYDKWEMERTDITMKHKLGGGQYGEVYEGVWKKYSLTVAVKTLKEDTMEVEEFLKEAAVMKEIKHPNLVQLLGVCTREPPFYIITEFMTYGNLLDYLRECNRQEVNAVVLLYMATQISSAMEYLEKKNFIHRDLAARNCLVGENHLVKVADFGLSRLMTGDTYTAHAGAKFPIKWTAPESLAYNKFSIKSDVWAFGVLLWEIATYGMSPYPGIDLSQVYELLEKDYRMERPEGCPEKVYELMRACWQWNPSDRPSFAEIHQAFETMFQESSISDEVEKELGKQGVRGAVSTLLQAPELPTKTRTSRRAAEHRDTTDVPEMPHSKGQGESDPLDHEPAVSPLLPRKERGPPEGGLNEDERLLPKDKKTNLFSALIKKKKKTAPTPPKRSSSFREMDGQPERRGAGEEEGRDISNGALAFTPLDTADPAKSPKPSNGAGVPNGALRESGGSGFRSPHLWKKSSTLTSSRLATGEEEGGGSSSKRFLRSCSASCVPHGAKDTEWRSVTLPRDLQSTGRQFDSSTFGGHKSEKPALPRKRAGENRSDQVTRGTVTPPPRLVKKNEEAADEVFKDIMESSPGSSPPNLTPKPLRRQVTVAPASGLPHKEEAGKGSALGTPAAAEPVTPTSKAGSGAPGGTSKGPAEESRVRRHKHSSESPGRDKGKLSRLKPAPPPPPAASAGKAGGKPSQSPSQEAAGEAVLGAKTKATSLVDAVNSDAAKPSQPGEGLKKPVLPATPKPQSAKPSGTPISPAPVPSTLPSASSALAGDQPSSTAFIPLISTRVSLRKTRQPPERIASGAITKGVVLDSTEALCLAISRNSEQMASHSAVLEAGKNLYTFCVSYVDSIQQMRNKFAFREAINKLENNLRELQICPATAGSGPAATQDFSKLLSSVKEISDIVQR

[8] = Antiproliferative activity against human PC3 cells; format: functional, cell-based; conditions: PC-3
[9] = Antiproliferative activity against human HCT116 cells; format: functional, cell-based; conditions: HCT-116
[10] = Lipophilicity, logD of the compound at pH 7.4 by RP-HPLC method based chromatographic hydrophobicity index determination; format: physicochemical; conditions: buffer
[11] = Stability in mouse liver microsomes assessed as parent compound remaining after 1 hr; format: ADME; conditions: read-out: Stability
[12] = Chromatographic hydrophobicity index, CHI of the compound by RP-HPLC method; format: physicochemical
[13] = Solubility in PBS buffer at pH 7.4 in presence of 1% BSA; format: physicochemical; conditions: PBS buffer with 1% BSA
[14] = Stability in mouse plasma assessed as parent compound remaining after 6 hrs; format: ADME, cell-free; conditions: read-out: Stability
[15] = Permeability from apical to basolateral side in human Caco2 cells in presence of 1% BSA; format: ADME, cell-based; conditions: Caco-2, read-out: permeability
Cytochrome P450 3A4 = Cytochrome P450 3A4 (Homo sapiens, UniProt P08684); assay: Inhibition of CYP3A4 (unknown origin); format: ADME
[16] = Efflux ratio in human Caco2 cells in presence of 1% BSA; format: ADME, cell-based; conditions: Caco-2
[17] = Permeability from basolateral to apical side in human Caco2 cells in presence of 1% BSA; format: ADME, cell-based; conditions: Caco-2, read-out: permeability
[18] = molecular target: Voltage-gated inwardly rectifying potassium channel KCNH2 (Homo sapiens, UniProt Q12809); assay: Binding affinity to human ERG
[19] = molecular target: Mitogen-activated protein kinase 1 (Homo sapiens, UniProt P28482); assay: Inhibition of ERK2 (unknown origin)

Vascular endothelial growth factor receptor 2, sequence (P35968 whole entry): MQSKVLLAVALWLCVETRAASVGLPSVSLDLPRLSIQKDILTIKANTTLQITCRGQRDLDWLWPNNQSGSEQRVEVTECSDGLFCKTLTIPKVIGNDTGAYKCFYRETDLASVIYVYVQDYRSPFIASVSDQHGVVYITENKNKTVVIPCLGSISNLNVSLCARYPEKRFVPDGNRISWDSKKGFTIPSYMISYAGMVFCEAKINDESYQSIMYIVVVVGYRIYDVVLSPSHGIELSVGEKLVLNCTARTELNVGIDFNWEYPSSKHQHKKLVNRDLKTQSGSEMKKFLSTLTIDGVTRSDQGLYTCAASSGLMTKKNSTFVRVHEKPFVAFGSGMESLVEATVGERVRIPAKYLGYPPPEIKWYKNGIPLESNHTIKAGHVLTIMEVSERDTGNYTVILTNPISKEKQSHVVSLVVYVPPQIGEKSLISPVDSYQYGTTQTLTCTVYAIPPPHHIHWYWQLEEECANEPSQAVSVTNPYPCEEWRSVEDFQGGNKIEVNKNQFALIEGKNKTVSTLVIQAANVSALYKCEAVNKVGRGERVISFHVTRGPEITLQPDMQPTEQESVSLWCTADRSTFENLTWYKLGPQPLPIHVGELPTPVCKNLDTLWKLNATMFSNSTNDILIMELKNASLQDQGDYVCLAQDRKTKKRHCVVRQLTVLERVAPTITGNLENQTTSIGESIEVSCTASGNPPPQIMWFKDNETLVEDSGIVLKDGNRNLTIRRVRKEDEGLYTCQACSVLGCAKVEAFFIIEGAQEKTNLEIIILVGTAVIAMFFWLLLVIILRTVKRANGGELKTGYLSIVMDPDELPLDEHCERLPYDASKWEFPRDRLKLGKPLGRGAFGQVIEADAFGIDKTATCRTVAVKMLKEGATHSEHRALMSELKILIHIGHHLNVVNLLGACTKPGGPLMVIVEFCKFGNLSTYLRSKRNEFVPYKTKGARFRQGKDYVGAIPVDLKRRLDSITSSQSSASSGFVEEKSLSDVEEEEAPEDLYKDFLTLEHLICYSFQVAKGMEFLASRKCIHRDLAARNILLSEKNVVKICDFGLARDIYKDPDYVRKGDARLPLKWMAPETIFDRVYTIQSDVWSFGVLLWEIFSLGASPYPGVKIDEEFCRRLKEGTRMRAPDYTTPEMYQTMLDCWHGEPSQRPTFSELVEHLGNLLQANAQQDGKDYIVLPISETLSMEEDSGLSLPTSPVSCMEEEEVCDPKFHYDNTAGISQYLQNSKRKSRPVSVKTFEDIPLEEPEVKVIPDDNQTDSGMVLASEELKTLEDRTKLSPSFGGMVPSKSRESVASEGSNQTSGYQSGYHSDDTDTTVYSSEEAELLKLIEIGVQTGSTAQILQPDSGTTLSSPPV

SMILES | IC50 [1] [µM] | IC50 [2] [µM] | IC50 [4] [µM] | IC50 [5] [µM] | IC50 (MDA-MB-468) [µM] | IC50 [6] [µM] | IC50 (A549) [µM] | IC50 [7] [µM] | chromatographic logD [10] | remaining at 1 h [11] [%] | CHI [12] | solubility [13] [µM] | IC50 [3] [µM] | IC50 [8] [µM] | IC50 [9] [µM] | also measured
CCNC(=O)Nc1ccc2ncc(-c3ccc(OC)c(OC)c3)cc2n1 | > 100 | 41.8 | > 100 | 13.6 | 21.9 | > 100 | > 50 | > 100 | 2.4 | 45.4 | 73.3 | 5.7 | > 50 | > 50 | 4.36 | 
COc1ccc(-c2cnc3ccc(NC(=O)NC(C)(C)C)nc3c2)cc1OC | > 100 | 85.5 | > 100 | > 100 | > 50 | > 100 | > 50 | > 100 | 3.2 | 70.4 | 88.8 | 8.5 | > 50 | > 50 | > 50 | 
COc1cc(-c2cnc3ccc(NC(=O)NC(C)(C)C)nc3c2)ccc1O | > 100 | 42.9 | > 100 | > 100 | 3.89 | 80.6 | 14.2 | > 100 | 2.7 |  | 79.3 |  | 9.68 | 4.91 | 4.59 | 
Cn1cc(-c2cnc3ccc(NC(=O)NC(C)(C)C)nc3c2)cn1 | > 100 | 7.95 | > 100 | > 100 | 1.96 | 4.5 | 1 | 6.05 | 2.5 |  | 76.1 |  | > 50 | 0.671 | 0.651 | 
Cn1cc(-c2cnc3c(NC(=O)NC(C)(C)C)ccnc3c2)cn1 |  |  |  |  |  |  |  |  |  |  |  |  |  |  |  | IC50 [19]: 31.6 µM

Further lines, with some results ahead:

IC50 [1] [µM] | IC50 [2] [µM] | IC50 [4] [µM] | IC50 [5] [µM] | IC50 (MDA-MB-468) [µM] | IC50 [6] [µM] | IC50 (A549) [µM] | IC50 [7] [µM] | chromatographic logD [10] | remaining at 1 h [11] [%] | CHI [12] | solubility [13] [µM] | SMILES | IC50 [3] [µM] | IC50 [8] [µM] | IC50 [9] [µM] | also measured
> 100 | > 100 | 37.1 | > 100 | > 50 | > 100 | > 50 | 20.8 |  |  |  |  | CCNC(=O)Nc1ccc2ncc(-c3ccc(OC)cc3)cc2n1 | > 50 | > 50 | 15.9 | 
> 100 | > 100 | > 31.6 | > 100 | 1.31 | > 100 | 3.08 | > 100 | 2.4 |  | 73.3 |  | Cn1cc(-c2cnc3ccc(NC(=O)Nc4ccccc4)nc3c2)cn1 | > 50 | 1.37 | 1.38 | 
> 100 | > 100 | > 31.6 | > 100 | > 50 | > 100 | > 50 | > 100 | 2.2 |  | 69.4 |  | Cn1cc(-c2cnc3ccc(NC(=O)NCc4ccccc4)nc3c2)cn1 | > 50 | > 50 | 0.191 | 
> 100 | 26.9 | 32.5 | > 100 | 1.8 | 12.7 |  | > 100 | 2.3 | 81.1 | 71.6 | 3.9 | Cn1cc(-c2cnc3ccc(NC(=O)NCCc4ccccc4)nc3c2)cn1 | > 50 |  | 1.2 | remaining at 6 h [14]: 96.7%; Papp A→B [15]: 64 ×10⁻⁶ cm/s; INH (Cytochrome P450 3A4): > 100 µM; efflux ratio [16]: 0.45; Papp B→A [17]: 29 ×10⁻⁶ cm/s; INH [18]: > 60 µM
